Source: PMC7473840, “Identification of a molecular locus for normalizing dysregulated GABA release from interneurons in the Fragile X brain” (Molecular Psychiatry, 2018)
“Also recorded” adds a separate entry of the source. Where two headings read alike, the source gives them in different places. Non-standard residues stand in square brackets, D forms with d. Residues, ends and D or L forms follow the SMILES beside them. pS = N[C@@H](COP(=O)(O)O)C(=O)O

Experiments:
[1] = target: T1, recombinant full-length FMRP (isoform 1) (Homo sapiens, UniProt Q06787); experiment: In vitro intrinsic protein fluorescence binding assay; details: for change of fluorescence emission spectrum of FMRP (binding): 500–1000 μM peptide and 1 μM FMRP, 100 mM NaCl, 50 mM Na2PO4 pH 7.4, 2 mM DTT, 20 °C, excitation 287 nm; for co-operativity of binding to dimeric FMRP: fit of binding data to dimer models; for Kd: 1 μM FMRP, pH 7.4, 20 °C
T1 construct: containing cDNA for full-length human FMRP; His-SUMO (N, cleaved yes); made in house; host or cells: Escherichia coli BL21 (DE3) Codon Plus
Method: Small Ubiquitin-like Modifier (SUMO) fusion construct containing cDNA for full-length human FMRP was generated by gene synthesis (GenScript USA Inc.) and subcloned into a pET SUMO vector (Invitrogen). […] The pET SUMO–FMRP construct was transformed into Escherichia coli BL21 (DE3) Codon Plus cells and grown at 37 °C in Lennox broth medium. Protein expression was induced with 0.5 mM isopropyl-β-D-thiogalactopyranoside when optical density reached ~0.6, followed by 18 h of additional growth at 16 °C. Cells were harvested by centrifugation and pellets stored at −20 °C. In order to purify SUMO–FMRP, thawed pellets were resuspended in lysis buffer [50 mM Tris, pH 8.0, 500 mM NaCl, 20 mM imidazole, 10% glycerol, 250 mM arginine, 5 mM benzamidine, and 2 mM dithiothreitol (DTT)], supplemented with DNAse 1 and cOmplete™ Protease Inhibitor Cocktail (Sigma-Aldrich). After cell lysis and centrifugation, the filtered supernatant was loaded onto a 20 ml NiNTA column equilibrated in the same lysis buffer. The column was extensively washed with 20 column volumes (CV) of the same buffer supplemented with 100 mM imidazole. Elution of SUMO-fusion FMRP was performed using 100–500 mM imidazole gradient, and protein-containing fractions were combined and a 6× His tagged Ulp protease was added. Cleavage of the His-SUMO tag was performed overnight in a cold room (7 °C) while dialyzing in 4 L of 50 mM Tris, pH 8.0, 500 mM NaCl, 50 mM imidazole, 10% glycerol, 250 mM arginine, 5 mM benzamidine, and 2 mM DTT. Complete cleavage of the SUMO tag by Ulp was confirmed by SDS-PAGE and the protein of interest was separated from the Ulp protease and SUMO tag by passing the cleavage reaction over a second NiNTA column. Flow-through and wash fractions containing protein of interest were combined and then loaded onto a Superdex 200 gel filtration column pre-equilibrated with the same lysis buffer.
The eluted purified proteins were analyzed by both SDS-PAGE and mass spectrometry, and the combined fractions were dialyzed three times in 5 L of Fluorescence Binding Buffer (100 mM NaCl, 50 mM Na2PO4 pH 7.4, 2 mM DTT). After filtering through a 0.22 μm GV Durapore Centrifugal Filter Unit (Millipore), FMRP concentration was determined by absorbance at 280 nm using a molar extinction coefficient of 48,360 M^−1 cm^−1, and the protein was used for binding studies with Kv1.2 C-terminal peptides.
All measurements were carried out in the Fluorescence Binding Buffer at 20 °C using a PTI Quanta Master 80 Spectrofluorometer (HORIBA Scientific) by monitoring intrinsic protein fluorescence with an excitation wavelength of 287 nm. Prior to performing a binding titration for any of the peptides, a full emission spectrum (300–450 nm) of the peptide:FMRP complex was compared to that of apo-FMRP. Differences in the spectrum of the complex (500–1000 μM peptide and 1 μM FMRP) and apo-FMRP at the same concentration (i.e., fluorescence quenching, enhancement or shifts of the emission maximum) indicated binding. For each of these peptides, binding measurements were performed by adding aliquots of saturated 1 µM FMRP:peptide complex (titration solution) to 400 μL of 1 μM apo-FMRP solution as described by Wells and Di Cera. Briefly, at each titration step, a volume vD was removed from the cuvette containing the apo-FMRP and replaced by an equal volume of the titration solution (1 μM FMRP: 200–500 μM peptide complex). As a result, the concentration of FMRP (1 μM) and total volume of solution in the cuvette, V = 400 μL, remained constant while the concentration of the peptide at the ith titration step, [peptide]i, was increased, and given by
[peptide]i = [peptide]0^i.D^i+[peptide]∞^i.(1 − D^i),
where, [peptide]0 was the initial peptide concentration in the cuvette, [peptide]∞ was the peptide concentration in the titration solution, and D was the dilution factor, D = (V − vD)/V. […]

[2] = test system: PNs, Fmr1-KO cerebellar slices; experiment: Spontaneous firing of PNs, cell-attached, Fmr1-KO; type: cell-based, mouse; details: 10 μM, co-applied with NBQX (10 μM); Fmr1-KO compared with WT
[3] = test system: PNs, WT and Fmr1-KO cerebellar slices; type: cell-based, mouse
BC–PN synapse, WT = experiment: sIPSCs from PNs, paired BC–PN recording, WT synapses; type: cell-based, mouse; details: peptide 2.5 mM infused into WT BCs, before and 20 min after; n = 5-6
[4] = test system: Kv1.2–FMRP interaction, cerebellar homogenates; experiment: Co-IP of Kv1.2 with FMRP (anti-FMRP antibody), peptide blocking; type: binding; details: WT mouse cerebellar homogenates; 250 μM peptide added prior to anti-FMRP antibody; immunoblot; at least in triplicate
Method: Whole cerebellums from WT and Fmr1 KO mice were homogenized in ice-cold Pull-Down buffer (1% Lubrol, 50 mM Tris–HCl, pH 7.4, 10 nM Na-orthovanadate, 30 mM Na-pyrophosphate, 50 mM NaF, 20 μm ZnCl2, and 0.25 mM PMSF, with the addition of protease inhibitor cocktail) using a Potter-Elvehjem grinding chamber (VWR). Samples were then centrifuged at 5000g for 20 min and 500 μL of supernatants were transferred into 1.5 ml Eppendorf tubes. 1:100 dilutions of anti-FMRP (Abcam 17722), anti-Kv1.2 (K14/16; Neuromab), anti-Kv1.2 ext-c (extracellular; Alomone labs), anti-Kv1.2 N-term (NBP1-42802; Novus), or anti-GAPDH (GAPDH-71.1; 1:80,000; Sigma-Aldrich) antibodies were added to the homogenate and incubated at 4 °C under continuous agitation for 2 h. A total 30 μL of a 1:1 mixture of pre-washed protein A and protein G magnabeads (Genscript) was then added and the samples were incubated under the same conditions for another 2 h. Beads were washed 4 times with PBS-Tween (0.2% Tween w/v) and then centrifuged at 3000g for 1 min. A sample was kept to verify total protein input. Protein was disassociated from the beads with the addition of 30 μL of 2× loading buffer (4% SDS, 20% glycerol w/v, 0.1 M dithiothreitol, 100 mM Tris–HCl, pH 6.8) then submitting the samples to 3 min at 95 °C. […] Bands were quantified as previously described using the AlphaEase SA software. […]

CC[C@H](C)[C@H](NC(=O)[C@@H](NC(=O)[C@H](CO)NC(=O)[C@H](C)NC(=O)[C@H](CO)NC(=O)[C@H](CCCNC(=N)N)NC(=O)[C@H](CO)NC(=O)[C@H](CCCCN)NC(=O)[C@H](CCCCN)NC(=O)[C@H](CC(C)C)NC(=O)[C@H](CC(=O)O)NC(=O)[C@@H]1CCCN1C(=O)[C@H](CO)NC(=O)[C@H](COP(=O)(O)O)NC(=O)[C@@H]1CCCN1C(=O)[C@@H](NC(=O)[C@H](CCCCN)NC(=O)[C@@H]1CCCN1)[C@@H](C)CC)[C@@H](C)O)C(=O)N[C@@H](CO)C(=O)N[C@@H](CCCCN)C(=O)N[C@@H](CO)C(=O)N[C@@H](CC(=O)O)C(=O)O [pS440] (H-PKIP[pS]SPDLKKSRSASTISKSD-OH; N-terminus and C-terminus assumed)
change of fluorescence emission spectrum of FMRP (binding) [1]: significant spectral changes; also recorded: phosphorylation-mediated interaction
co-operativity of binding to dimeric FMRP [1]: with cooperativity; also recorded: binds dimeric FMRP in a co-operative mechanism
reduced χ2 of fit, model D1 [1]: 11.6
χ2 of fit, model D1 [1]: 92.8
enhancement of binding affinity of second ligand by binding of the first ([1]; model D2c): ~ 80 fold
reduced χ2 of fit, model D2c ([1]; model D2c): 0.16
χ2 of fit, model D2c ([1]; model D2c): 0.99
reduced χ2 of fit, model D2i [1]: 2.3
χ2 of fit, model D2i [1]: 16.4

CN1CCc2cc3c(cc2[C@H]1[C@@H]1OC(=O)c2c1ccc1c2OCO1)OCO3 [bicuculline]
difference in PN firing rates between WT and KO [2]: the differences in PN firing rates were abolished
elimination of IPSC events ([3]; 10 μM, holding −60 mV): eliminated all the events

CC[C@H](C)[C@H](NC(=O)[C@@H](NC(=O)[C@H](CO)NC(=O)[C@H](C)NC(=O)[C@H](CO)NC(=O)[C@H](CCCNC(=N)N)NC(=O)[C@H](CO)NC(=O)[C@H](CCCCN)NC(=O)[C@H](CCCCN)NC(=O)[C@H](CC(C)C)NC(=O)[C@H](CC(=O)O)NC(=O)[C@@H]1CCCN1C(=O)[C@H](COP(=O)(O)O)NC(=O)[C@H](COP(=O)(O)O)NC(=O)[C@@H]1CCCN1C(=O)[C@@H](NC(=O)[C@H](CCCCN)NC(=O)[C@@H]1CCCN1)[C@@H](C)CC)[C@@H](C)O)C(=O)N[C@@H](CO)C(=O)N[C@@H](CCCCN)C(=O)N[C@@H](CO)C(=O)N[C@@H](CC(=O)O)C(=O)O [PhosKv436-457] (H-PKIP[pS][pS]PDLKKSRSASTISKSD-OH)
Kd ([1]; model D1: dimer with one binding site, read-out: KD1, model D1): 10.1 ± 4.4 µM
Kd ([1]; model D2i: dimer with two independent binding sites, read-out: KD1, model D2i): 1.08 ± 0.26 µM

PKIPSSPDLKKSRSASTISKSD [Kv436-457]
amplitude and frequency of sIPSCs (BC–PN synapse, WT): but not the non-phosphorylated or scrambled phosphorylated peptide, significantly elevated the amplitude and frequency of sIPSCs
inhibition of Kv1.2–FMRP binding (co-IP) [4]: Neither the non-phosphorylated peptide with the identical sequence (Kv436-457, ^436PKIPSSPDLKKSRSASTISKSD^457) nor the doubly-phosphorylated scrambled peptide (IKPSTLSDSRAKpSSDPpSKPSIK) inhibited the Kv1.2–FMRP binding activity
change of fluorescence emission spectrum of FMRP (binding) ([1]; listed as non-phosphorylated): no change in the fluorescence emission spectrum of FMRP
change of fluorescence emission spectrum of FMRP (binding) ([1]; listed as non-phosphorylated Kv1.2 C-terminal peptide): no binding

NC1=N[C@H](O)[C@H]2[C@H]3O[C@]4(O)O[C@@H]([C@@H](O)[C@@]2(N1)[C@@H]4O)[C@]3(O)CO [TTX, tetrodotoxin]
amplitude and frequency of mIPSCs, WT versus KO [3]: the amplitude and frequency of mIPSCs became indistinguishable between the two groups

CC[C@H](C)[C@H](NC(=O)[C@@H](NC(=O)[C@H](CO)NC(=O)[C@H](C)NC(=O)[C@H](CO)NC(=O)[C@H](CCCNC(=N)N)NC(=O)[C@H](CO)NC(=O)[C@H](CCCCN)NC(=O)[C@H](CCCCN)NC(=O)[C@H](CC(C)C)NC(=O)[C@H](CC(=O)O)NC(=O)[C@@H]1CCCN1C(=O)[C@H](COP(=O)(O)O)NC(=O)[C@H](CO)NC(=O)[C@@H]1CCCN1C(=O)[C@@H](NC(=O)[C@H](CCCCN)NC(=O)[C@@H]1CCCN1)[C@@H](C)CC)[C@@H](C)O)C(=O)N[C@@H](CO)C(=O)N[C@@H](CCCCN)C(=O)N[C@@H](CO)C(=O)N[C@@H](CC(=O)O)C(=O)O [pS441] (H-PKIPS[pS]PDLKKSRSASTISKSD-OH; N-terminus and C-terminus assumed)
change of fluorescence emission spectrum of FMRP (binding) [1]: significant spectral changes; also recorded: phosphorylation-mediated interaction
binding affinity relative to the other phospho-peptides ([1]; FMRP dimer models): did bind with similar affinities
co-operativity of binding to dimeric FMRP [1]: without cooperativity; also recorded: did not produce co-operative binding effects
reduced χ2 of fit, model D1 [1]: 10
χ2 of fit, model D1 [1]: 106
fit to D2c model ([1]; model D2c): could not be fitted to the D2c model
reduced χ2 of fit, model D2i [1]: 11
χ2 of fit, model D2i [1]: 107
KD tighter than the KD1 of pS440 ([1]; models D1 and D2i versus KD1 of pS440 (D2c)): ~ 5 fold
KD weaker than the KD2 of pS440 ([1]; models D1 and D2i versus KD2 of pS440 (D2c)): ~ 15 fold
